The record followed here is ChEMBL document CHEMBL4376867 (J Med Chem, 2020).

In general, IC50 refers to the concentration that inhibits the measured activity by half.

Assay [1] has as its target T1, Serine/threonine-protein kinase ULK1 (Homo sapiens, UniProt O75385).
T1 sequence (O75385 whole entry): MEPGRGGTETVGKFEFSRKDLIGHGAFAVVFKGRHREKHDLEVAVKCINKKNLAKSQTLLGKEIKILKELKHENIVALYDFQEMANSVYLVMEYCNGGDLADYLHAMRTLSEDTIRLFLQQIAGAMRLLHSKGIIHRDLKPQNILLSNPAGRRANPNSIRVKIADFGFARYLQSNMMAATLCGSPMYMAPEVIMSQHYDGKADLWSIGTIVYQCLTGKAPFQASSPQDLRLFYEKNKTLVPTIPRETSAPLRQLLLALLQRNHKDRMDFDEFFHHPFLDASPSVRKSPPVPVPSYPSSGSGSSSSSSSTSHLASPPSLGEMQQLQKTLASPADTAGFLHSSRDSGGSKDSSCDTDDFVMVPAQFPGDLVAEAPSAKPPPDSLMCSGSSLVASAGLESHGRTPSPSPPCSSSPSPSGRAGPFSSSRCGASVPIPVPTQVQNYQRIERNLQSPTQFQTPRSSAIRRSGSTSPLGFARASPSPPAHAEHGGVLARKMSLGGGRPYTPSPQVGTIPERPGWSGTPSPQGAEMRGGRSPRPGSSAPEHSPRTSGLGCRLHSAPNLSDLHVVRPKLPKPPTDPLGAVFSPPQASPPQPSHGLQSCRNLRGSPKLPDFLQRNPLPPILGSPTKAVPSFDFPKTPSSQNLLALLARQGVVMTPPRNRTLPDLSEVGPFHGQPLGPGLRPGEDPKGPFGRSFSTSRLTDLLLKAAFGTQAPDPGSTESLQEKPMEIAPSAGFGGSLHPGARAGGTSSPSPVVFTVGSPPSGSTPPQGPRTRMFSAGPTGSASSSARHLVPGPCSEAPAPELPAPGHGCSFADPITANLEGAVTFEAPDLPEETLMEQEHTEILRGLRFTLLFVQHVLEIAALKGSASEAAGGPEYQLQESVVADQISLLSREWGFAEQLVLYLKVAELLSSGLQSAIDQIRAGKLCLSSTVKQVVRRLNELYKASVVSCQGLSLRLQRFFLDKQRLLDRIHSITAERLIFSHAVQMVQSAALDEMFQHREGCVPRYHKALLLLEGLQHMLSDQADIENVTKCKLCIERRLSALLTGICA
Briefly: Inhibition of wild-type human partial length ULK1 (M1 to T309 residues) expressed in mammalian expression system.

Assay [2] concerns the target T2, Serine/threonine-protein kinase TBK1 (Homo sapiens, UniProt Q9UHD2).
T2 sequence (Q9UHD2 whole entry): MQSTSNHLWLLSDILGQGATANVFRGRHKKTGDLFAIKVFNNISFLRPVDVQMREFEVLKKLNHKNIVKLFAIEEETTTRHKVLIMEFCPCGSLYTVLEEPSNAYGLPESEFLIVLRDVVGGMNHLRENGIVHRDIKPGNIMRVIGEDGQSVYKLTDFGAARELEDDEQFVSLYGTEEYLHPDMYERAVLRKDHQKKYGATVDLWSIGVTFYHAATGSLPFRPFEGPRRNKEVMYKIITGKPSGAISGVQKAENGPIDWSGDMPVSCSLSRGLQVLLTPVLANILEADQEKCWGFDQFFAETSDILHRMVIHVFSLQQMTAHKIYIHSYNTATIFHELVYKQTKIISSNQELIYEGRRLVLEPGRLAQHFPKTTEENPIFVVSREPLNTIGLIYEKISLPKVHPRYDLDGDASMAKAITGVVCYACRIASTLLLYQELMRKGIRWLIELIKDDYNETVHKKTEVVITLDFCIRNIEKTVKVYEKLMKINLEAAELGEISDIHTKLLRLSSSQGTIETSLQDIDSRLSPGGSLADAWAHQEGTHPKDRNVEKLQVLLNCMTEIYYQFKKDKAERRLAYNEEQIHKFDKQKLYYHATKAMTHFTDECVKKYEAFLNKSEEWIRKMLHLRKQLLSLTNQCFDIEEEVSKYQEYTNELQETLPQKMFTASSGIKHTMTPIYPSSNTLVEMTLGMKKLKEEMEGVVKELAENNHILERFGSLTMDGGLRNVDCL

A further assay concerns the target T3, IKK epsilon/TBK1 (Homo sapiens, UniProt Q14164+Q9UHD2).
T3 sequence (Q14164 whole entry): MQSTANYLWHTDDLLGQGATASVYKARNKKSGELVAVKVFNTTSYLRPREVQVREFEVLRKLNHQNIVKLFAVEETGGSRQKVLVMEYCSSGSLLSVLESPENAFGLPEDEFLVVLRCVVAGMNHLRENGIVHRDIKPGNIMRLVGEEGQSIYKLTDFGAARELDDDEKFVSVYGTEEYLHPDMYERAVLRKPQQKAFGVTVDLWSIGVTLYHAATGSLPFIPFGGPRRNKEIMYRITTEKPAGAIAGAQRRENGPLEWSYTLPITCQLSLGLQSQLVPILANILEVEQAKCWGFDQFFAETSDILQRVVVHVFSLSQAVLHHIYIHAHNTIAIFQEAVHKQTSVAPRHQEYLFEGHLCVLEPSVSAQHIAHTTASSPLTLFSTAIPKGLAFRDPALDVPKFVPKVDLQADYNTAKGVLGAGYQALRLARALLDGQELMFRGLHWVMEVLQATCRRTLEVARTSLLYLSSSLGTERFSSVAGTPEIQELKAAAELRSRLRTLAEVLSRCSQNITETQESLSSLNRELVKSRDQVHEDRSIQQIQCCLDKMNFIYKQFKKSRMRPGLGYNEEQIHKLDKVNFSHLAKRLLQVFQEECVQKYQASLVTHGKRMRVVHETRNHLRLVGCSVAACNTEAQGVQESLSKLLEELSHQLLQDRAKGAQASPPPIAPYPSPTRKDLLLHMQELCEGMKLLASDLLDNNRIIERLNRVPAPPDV
T3 sequence (Q9UHD2 whole entry): T2 sequence (Q9UHD2 whole entry)
Briefly: Inhibition of IKKepsilon/TBK1 in human MDB-MB-231 cells transduced with lentiviral vector expressing human IRF3 assessed as decrease in poly(I:C)-stimulated IRF3 phosphorylation at S385/386 residues preincubated for 1 hr followed by poly(I:C) addition and measured after 1 hr. Format: cell-based.

In turn, `COCc1cc(-c2ccc3nc(Nc4cc([C@@H](C)N5CCN(C(=O)CC(F)(F)F)CC5)ccn4)[nH]c3c2)ncn1` came in with an IC50 in assay [1] of 368 nM.
`CC(C)Oc1cncnc1-c1ccc2nc(Nc3cc([C@@H](C)N4CCN(C(=O)CC(F)(F)F)CC4)ccn3)[nH]c2c1`: the IC50 came to 2 nM in assay [2], 263 nM in assay [1] and 119 nM at IKK epsilon/TBK1.
The corresponding values for `C[C@H](c1ccnc(Nc2nc3ccc(-c4cc(N(C)C)ncn4)cc3[nH]2)c1)N1CCN(C(=O)CC(F)(F)F)CC1` [BAY-985] are 2 nM, 7930 nM and 74 nM.
The corresponding values for `O=C(CC(F)(F)F)N1CCN(Cc2ccnc(Nc3nc4ccc(-c5cnn(CC6CC6)c5)cc4[nH]3)c2)CC1` are 5 nM, 28 nM and 368 nM.
In the case of `C[C@H](c1ccnc(Nc2nc3ccc(-c4cc(OCC5CC5)ncn4)cc3[nH]2)c1)N1CCN(C(=O)CC(F)(F)F)CC1`, the values for the IC50 (in assay [2]; in assay [1]; on IKK epsilon/TBK1) were 2 nM, 416 nM and 66 nM, respectively.
The like results for `C[C@H](c1ccnc(Nc2nc3ccc(-c4cnn(CC5CC5)c4)cc3[nH]2)c1)N1CCN(C(=O)CC(F)(F)F)CC1` were, in that order, 1 nM, 9 nM and 131 nM.
The corresponding values for `CN(C)c1cc(-c2ccc3nc(Nc4cc(CN5CCN(C(=O)CC(F)(F)F)CC5)ccn4)[nH]c3c2)ncn1` are 9 nM, above 10000 nM and 213 nM.
Regarding `Cc1noc(-c2ccc3nc(Nc4cc(CN5CCN(C(=O)CC(F)(F)F)CC5)ccn4)[nH]c3c2)n1`, the IC50 worked out at 129 nM in assay [2] and 2750 nM at IKK epsilon/TBK1.
As for `CNc1cc(-c2ccc3nc(Nc4cc(CN5CCN(C(=O)CC(F)(F)F)CC5)ccn4)[nH]c3c2)ncn1`, the figures for the IC50 (in assay [2]; in assay [1]; at IKK epsilon/TBK1) were 10 nM, 1640 nM and 1990 nM, respectively.
Take `C[C@H](c1ccnc(Nc2nc3ccc(-c4cnn(CC5CCC5)c4)cc3[nH]2)c1)N1CCN(C(=O)CC(F)(F)F)CC1`: the values for the IC50 (in assay [2]; at IKK epsilon/TBK1) were 2 nM and 93 nM, respectively.
As for `Cc1cc(-c2ccc3nc(Nc4cc([C@@H](C)N5CCN(C(=O)CC(F)(F)F)CC5)ccn4)[nH]c3c2)ncn1`, the IC50 in assay [2] is 2 nM; in assay [1], 980 nM; on IKK epsilon/TBK1 it was 140 nM.
On to `Cc1noc(-c2ccc3nc(Nc4cc([C@@H](C)N5CCN(C(=O)CC(F)(F)F)CC5)ccn4)[nH]c3c2)n1`, for which the IC50 in assay [2] came to 19 nM; at IKK epsilon/TBK1 it was 1210 nM.
